We go through one molecule from publication PMC5218480 (PLoS ONE, 2017).

The test system of this assay is MV-4-11 cells. Briefly: Gene expression microarray analysis (Affymetrix PrimeView) and GSEA. It counts as cell-based, human. On the set-up: RFU PODN (11730768_x_at) / Fold change /veh PODN (11730768_x_at) / RFU LINC00158 (11744669_a_at) / Fold change /veh LINC00158 (11744669_a_at) / RFU DUSP10 (11751237_a_at) / Fold change /veh DUSP10 (11751237_a_at) / RFU ID3 (11757404_x_at) / Fold change /veh ID3 (11757404_x_at) / RFU PLEKHG5 (11737974_s_at) / Fold change /veh PLEKHG5 (11737974_s_at) / RFU LRRC4B (11730491_at) / Fold change /veh LRRC4B (11730491_at) / RFU GIMAP4 (11747438_a_at) / Fold change /veh GIMAP4 (11747438_a_at) / RFU KRT8 (11758183_x_at) / Fold change /veh KRT8 (11758183_x_at) / RFU CNN1 (11734310_a_at) / Fold change /veh CNN1 (11734310_a_at) / RFU VPS37D (11726825_at) / Fold change /veh VPS37D (11726825_at) / RFU C10orf10 (11716522_x_at) / Fold change /veh C10orf10 (11716522_x_at) / RFU KIR2DL2 /// KIR2DL4 /// KIR2DL5A /// KIR2DL5B /// KIR2DS1 /// KIR2DS2 /// KIR2DS3 /// KIR2DS4 /// KIR3DL3 /// KIR3DL3 /// KIR3DS1 (11738374_at) / Fold change /veh KIR2DL2 /// KIR2DL4 /// KIR2DL5A /// KIR2DL5B /// KIR2DS1 /// KIR2DS2 /// KIR2DS3 /// KIR2DS4 /// KIR3DL3 /// KIR3DL3 /// KIR3DS1 (11738374_at) / RFU C1QL1 (11718748_at) / Fold change /veh C1QL1 (11718748_at) / RFU TMPRSS4 (11747572_a_at) / Fold change /veh TMPRSS4 (11747572_a_at) / RFU HAMP (11756126_x_at) / Fold change /veh HAMP (11756126_x_at) / RFU RNFT2 (11725882_a_at) / Fold change /veh RNFT2 (11725882_a_at) / RFU NR4A2 (11747474_a_at) / Fold change /veh NR4A2 (11747474_a_at) / RFU ABCC12 (11746883_a_at) / Fold change /veh ABCC12 (11746883_a_at) / RFU TMEM136 (11760407_x_at) / Fold change /veh TMEM136 (11760407_x_at) / RFU CLDN22 /// WWC2 (11732394_at) / Fold change /veh CLDN22 /// WWC2 (11732394_at) / RFU HLA-DPB1 (11760878_x_at) / Fold change /veh HLA-DPB1 (11760878_x_at) / RFU SPINT1 (11716480_a_at) / Fold change /veh SPINT1 (11716480_a_at) / RFU GAP43 (11754022_s_at) / Fold change /veh GAP43 (11754022_s_at) / RFU A4GNT (11735810_at) / Fold change /veh A4GNT (11735810_at) / RFU PRB3 (11715151_x_at) / Fold change /veh PRB3 (11715151_x_at) / RFU TUBB4B (11761932_at) / Fold change /veh TUBB4B (11761932_at) / RFU CAPN14 (11732068_a_at) / Fold change /veh CAPN14 (11732068_a_at) / RFU TMCC2 (11721928_a_at) / Fold change /veh TMCC2 (11721928_a_at) / RFU IRGQ (11745062_a_at) / Fold change /veh IRGQ (11745062_a_at) / RFU FAM174B (11720279_a_at) / Fold change /veh FAM174B (11720279_a_at) / RFU TMPRSS4 (11748680_a_at) / Fold change /veh TMPRSS4 (11748680_a_at) / RFU FAM212B (11763350_a_at) / Fold change /veh FAM212B (11763350_a_at) / RFU PLEKHG5 (11743358_a_at) / Fold change /veh PLEKHG5 (11743358_a_at) / RFU ZSCAN30 (11745921_a_at) / Fold change /veh ZSCAN30 (11745921_a_at) / RFU CMKLR1 (11741424_a_at) / Fold change /veh CMKLR1 (11741424_a_at) / RFU LOC101060620 /// MAPK8IP1 (11723275_at) / Fold change /veh LOC101060620 /// MAPK8IP1 (11723275_at) / RFU SPTSSB (11747773_x_at) / Fold change /veh SPTSSB (11747773_x_at) / RFU PRSS12 (11739890_at) / Fold change /veh PRSS12 (11739890_at) / RFU BIN1 (11741810_x_at) / Fold change /veh BIN1 (11741810_x_at) / RFU WNT11 (11732464_a_at) / Fold change /veh WNT11 (11732464_a_at) / RFU C10orf10 (11716521_a_at) / Fold change /veh C10orf10 (11716521_a_at) / RFU C5orf56 (11738089_at) / Fold change /veh C5orf56 (11738089_at) / RFU CYB561 (11721691_x_at) / Fold change /veh CYB561 (11721691_x_at) / RFU ANKRD19P (11752326_a_at) / Fold change /veh ANKRD19P (11752326_a_at) / RFU OR2T12 /// OR2T33 /// OR2T8 (11738714_s_at) / Fold change /veh OR2T12 /// OR2T33 /// OR2T8 (11738714_s_at) / RFU VCAN (11748164_a_at) / Fold change /veh VCAN (11748164_a_at) / RFU JSRP1 (11732532_at) / Fold change /veh JSRP1 (11732532_at) / RFU KRTAP10-11 (11738290_x_at) / Fold change /veh KRTAP10-11 (11738290_x_at) / RFU MYO3A (11730013_a_at) / Fold change /veh MYO3A (11730013_a_at) / RFU EBF3 (11725865_a_at) / Fold change /veh EBF3 (11725865_a_at) / RFU CAMK2N1 (11719241_x_at) / Fold change /veh CAMK2N1 (11719241_x_at) / RFU C5orf56 (11738088_a_at) / Fold change /veh C5orf56 (11738088_a_at) / RFU OLFML3 (11715873_a_at) / Fold change /veh OLFML3 (11715873_a_at) / RFU LOC100653217 /// NTM (11731650_a_at) / Fold change /veh LOC100653217 /// NTM (11731650_a_at) / RFU MAPK11 (11762145_a_at) / Fold change /veh MAPK11 (11762145_a_at) / RFU FIZ1 (11724087_x_at) / Fold change /veh FIZ1 (11724087_x_at) / RFU OASL (11726364_x_at) / Fold change /veh OASL (11726364_x_at) / RFU SOX15 (11748057_x_at) / Fold change /veh SOX15 (11748057_x_at) / RFU CD79A (11719716_a_at) / Fold change /veh CD79A (11719716_a_at) / RFU HIST1H1D (11736915_at) / Fold change /veh HIST1H1D (11736915_at) / RFU CASKIN2 (11723855_a_at) / Fold change /veh CASKIN2 (11723855_a_at) / RFU LOC730098 (11760151_x_at) / Fold change /veh LOC730098 (11760151_x_at) / RFU OR4N2 (11742367_at) / Fold change /veh OR4N2 (11742367_at) / RFU PRRT2 (11749266_a_at) / Fold change /veh PRRT2 (11749266_a_at) / RFU SNX32 (11753110_a_at) / Fold change /veh SNX32 (11753110_a_at) / RFU CDHR5 (11726645_a_at) / Fold change /veh CDHR5 (11726645_a_at) / RFU RCAN1 (11760418_a_at) / Fold change /veh RCAN1 (11760418_a_at) / RFU FAM167A (11723789_a_at) / Fold change /veh FAM167A (11723789_a_at) / RFU FAM26E (11764081_at) / Fold change /veh FAM26E (11764081_at) / RFU ISYNA1 (11749810_s_at) / Fold change /veh ISYNA1 (11749810_s_at) / RFU ACY1 (11761880_at) / Fold change /veh ACY1 (11761880_at) / RFU 11764098_at / Fold change /veh 11764098_at / RFU SAMD14 (11745864_x_at) / Fold change /veh SAMD14 (11745864_x_at) / RFU NPB (11741838_a_at) / Fold change /veh NPB (11741838_a_at) / RFU TMPRSS6 (11731388_a_at) / Fold change /veh TMPRSS6 (11731388_a_at) / RFU KRTAP10-2 (11738614_at) / Fold change /veh KRTAP10-2 (11738614_at) / RFU ARHGAP8 /// PRR5-ARHGAP8 (11727945_x_at) / Fold change /veh ARHGAP8 /// PRR5-ARHGAP8 (11727945_x_at) / RFU KRTAP5-7 /// NADSYN1 (11734609_at) / Fold change /veh KRTAP5-7 /// NADSYN1 (11734609_at) / RFU RASL12 (11751679_a_at) / Fold change /veh RASL12 (11751679_a_at) / RFU CDKN2B (11736163_a_at) / Fold change /veh CDKN2B (11736163_a_at) / RFU PRF1 (11729649_at) / Fold change /veh PRF1 (11729649_at) / RFU, ZNF638 /// ZNF638-IT1 / Fold change vs veh, ZNF638 /// ZNF638-IT1 / RFU, PANK3 / Fold change vs veh, PANK3 / RFU, SH3YL1 / Fold change vs veh, SH3YL1 / RFU, ZEB2 / Fold change vs veh, ZEB2 / RFU, NRIP1 / Fold change vs veh, NRIP1 / RFU, PTTG1IP / Fold change vs veh, PTTG1IP / RFU, CAPN2 / Fold change vs veh, CAPN2 / RFU, MED14 / Fold change vs veh, MED14 / RFU, SNORA58 / Fold change vs veh, SNORA58 / RFU, C1orf63 / Fold change vs veh, C1orf63 / RFU, LRRFIP1 / Fold change vs veh, LRRFIP1 / RFU, NDUFAF7 / Fold change vs veh, NDUFAF7 / RFU, SLC12A2 / Fold change vs veh, SLC12A2 / RFU, IBTK / Fold change vs veh, IBTK / RFU, ESF1 / Fold change vs veh, ESF1 / Fold change vs veh, TMEM50B / RFU, TAOK1 / Fold change vs veh, TAOK1 / RFU, ACBD3 / Fold change vs veh, ACBD3 / RFU, TMA16 / Fold change vs veh, TMA16 / RFU, RWDD3 / Fold change vs veh, RWDD3 / RFU, BCAT1 / Fold change vs veh, BCAT1 / RFU, EDEM3 / Fold change vs veh, EDEM3 / RFU, TMEM33 / Fold change vs veh, TMEM33 / RFU, WDR75 / Fold change vs veh, WDR75 / RFU, AHCTF1 / Fold change vs veh, AHCTF1 / RFU, TFRC / Fold change vs veh, TFRC / RFU, ZDHHC17 / Fold change vs veh, ZDHHC17 / RFU, NOM1 / Fold change vs veh, NOM1 / RFU, ARL8B / Fold change vs veh, ARL8B / RFU, ZBTB11 / Fold change vs veh, ZBTB11 / RFU, TAMM41 / Fold change vs veh, TAMM41 / RFU, KIAA1704 /// LOC100996395 / Fold change vs veh, KIAA1704 /// LOC100996395 / RFU, ING1 / Fold change vs veh, ING1 / RFU, TRMT61B / Fold change vs veh, TRMT61B / RFU, FUBP3 / Fold change vs veh, FUBP3 / RFU, TP53 / Fold change vs veh, TP53 / RFU, TNKS2 / Fold change vs veh, TNKS2 / RFU, ZFP14 / Fold change vs veh, ZFP14 / RFU, ACTR2 / Fold change vs veh, ACTR2 / RFU, PPP3R1 / Fold change vs veh, PPP3R1 / RFU, PIK3R1 / Fold change vs veh, PIK3R1 / RFU, HNRNPA1 / Fold change vs veh, HNRNPA1 / RFU, RNF170 / Fold change vs veh, RNF170 / RFU, ZNF28 / Fold change vs veh, ZNF28 / RFU, RNGTT / Fold change vs veh, RNGTT / RFU, OGT / Fold change vs veh, OGT / RFU, BRD1 / Fold change vs veh, BRD1 / RFU, MARS / Fold change vs veh, MARS / RFU, ZNF655 / Fold change vs veh, ZNF655 / RFU, FAHD1 / Fold change vs veh, FAHD1 / RFU, BDP1 / Fold change vs veh, BDP1 / RFU, LRRCC1 / Fold change vs veh, LRRCC1 / RFU, ARID1A / Fold change vs veh, ARID1A / RFU, ZNF146 / Fold change vs veh, ZNF146 / RFU, ZNF330 / Fold change vs veh, ZNF330 / RFU, GPN3 / Fold change vs veh, GPN3 / RFU, C9orf123 / Fold change vs veh, C9orf123 / RFU, N4BP2L2 / Fold change vs veh, N4BP2L2 / RFU, ARFIP1 / Fold change vs veh, ARFIP1 / RFU, FAM179B / Fold change vs veh, FAM179B / RFU, BCL10 / Fold change vs veh, BCL10 / RFU, UHRF1BP1L / Fold change vs veh, UHRF1BP1L / RFU, BET1 / Fold change vs veh, BET1 / RFU, CNOT2 / Fold change vs veh, CNOT2 / RFU, ZNF268 / Fold change vs veh, ZNF268 / Fold change vs veh, ZNF507 / RFU, DGCR2 / Fold change vs veh, DGCR2 / RFU, WDSUB1 / Fold change vs veh, WDSUB1 / Fold change vs veh, HSP90B1 /// MIR3652 / RFU, ADSS / Fold change vs veh, ADSS / RFU, GK / Fold change vs veh, GK / RFU, ZNF148 / Fold change vs veh, ZNF148 / RFU, TAF9 / Fold change vs veh, TAF9 / RFU, SLC1A5 / Fold change vs veh, SLC1A5 / RFU, SLMO2 / Fold change vs veh, SLMO2 / RFU, ABCC4 / Fold change vs veh, ABCC4 / RFU, LOC101060439 /// RAP1B / Fold change vs veh, LOC101060439 /// RAP1B / RFU, RFX7 / Fold change vs veh, RFX7 / RFU, GTPBP10 / Fold change vs veh, GTPBP10 / RFU, CNEP1R1 / Fold change vs veh, CNEP1R1 / RFU, BIVM-ERCC5 /// ERCC5 / Fold change vs veh, BIVM-ERCC5 /// ERCC5 / RFU, ILF3 / Fold change vs veh, ILF3 / RFU 11762660_at / Fold change /veh 11762660_at / RFU VCAN (11757783_s_at) / Fold change /veh VCAN (11757783_s_at) / RFU DDX43 (11728927_at) / Fold change /veh DDX43 (11728927_at) / RFU KRT8 (11758188_x_at) / Fold change /veh KRT8 (11758188_x_at) / RFU NKD1 (11759106_at) / Fold change /veh NKD1 (11759106_at) / RFU SRD5A1 (11742802_a_at) / Fold change /veh SRD5A1 (11742802_a_at) / RFU TPSAB1 /// TPSB2 (11721975_s_at) / Fold change /veh TPSAB1 /// TPSB2 (11721975_s_at) / RFU GSTM3 (11746129_a_at) / Fold change /veh GSTM3 (11746129_a_at) / RFU IL23R (11737362_x_at) / Fold change /veh IL23R (11737362_x_at) / RFU TMEM51 (11727254_a_at) / Fold change /veh TMEM51 (11727254_a_at) / RFU PIWIL2 (11732686_x_at) / Fold change /veh PIWIL2 (11732686_x_at) / RFU ORM1 (11744905_x_at) / Fold change /veh ORM1 (11744905_x_at) / RFU CCDC152 (11743942_at) / Fold change /veh CCDC152 (11743942_at) / RFU ECM1 (11717891_a_at) / Fold change /veh ECM1 (11717891_a_at) / RFU IL23R (11748794_a_at) / Fold change /veh IL23R (11748794_a_at) / RFU TNFAIP8L3 (11732012_x_at) / Fold change /veh TNFAIP8L3 (11732012_x_at) / RFU MBOAT4 (11741988_at) / Fold change /veh MBOAT4 (11741988_at) / RFU 11764193_at / Fold change /veh 11764193_at / RFU TMEM53 (11763286_at) / Fold change /veh TMEM53 (11763286_at) / RFU MAGEB2 (11727129_at) / Fold change /veh MAGEB2 (11727129_at) / RFU TMEM200A (11744735_a_at) / Fold change /veh TMEM200A (11744735_a_at) / RFU CCDC152 (11751479_a_at) / Fold change /veh CCDC152 (11751479_a_at) / RFU FAM211A (11726209_a_at) / Fold change /veh FAM211A (11726209_a_at) / RFU RGS16 (11746705_a_at) / Fold change /veh RGS16 (11746705_a_at) / RFU VCAN (11755009_s_at) / Fold change /veh VCAN (11755009_s_at) / RFU RHOB (11743442_s_at) / Fold change /veh RHOB (11743442_s_at) / RFU RGS16 (11720943_a_at) / Fold change /veh RGS16 (11720943_a_at) / RFU RGS16 (11720944_at) / Fold change /veh RGS16 (11720944_at) / RFU, VPS4B / Fold change vs veh, VPS4B / RFU, CREB1 / Fold change vs veh, CREB1 / RFU, DNAJC13 / Fold change vs veh, DNAJC13 / RFU, GNAQ / Fold change vs veh, GNAQ / RFU, CDK5R1 / Fold change vs veh, CDK5R1 / RFU, ZRANB3 / Fold change vs veh, ZRANB3 / RFU, CUL4A / Fold change vs veh, CUL4A / RFU, CCNY / Fold change vs veh, CCNY / RFU, UFL1 / Fold change vs veh, UFL1 / RFU, COG3 / Fold change vs veh, COG3 / RFU, DIAPH2 / Fold change vs veh, DIAPH2 / RFU, SKA2 / Fold change vs veh, SKA2 / RFU, AFF3 / Fold change vs veh, AFF3 / RFU, LMF1 / Fold change vs veh, LMF1 / RFU, IPO11 / Fold change vs veh, IPO11 / RFU, DFFB / Fold change vs veh, DFFB / RFU, FOXP1 / Fold change vs veh, FOXP1 / RFU, CARD8 / Fold change vs veh, CARD8 / RFU, STRN3 / Fold change vs veh, STRN3 / RFU, ADK / Fold change vs veh, ADK / RFU, RASSF2 / Fold change vs veh, RASSF2 / RFU, WIPF1 / Fold change vs veh, WIPF1 / RFU, LARP1B / Fold change vs veh, LARP1B / RFU, RASA1 / Fold change vs veh, RASA1 / RFU, RB1 / Fold change vs veh, RB1 / RFU, PPFIA1 / Fold change vs veh, PPFIA1 / RFU, MAT2A / Fold change vs veh, MAT2A / RFU, CCT5 / Fold change vs veh, CCT5 / RFU, WDR92 / Fold change vs veh, WDR92 / RFU, CUX1 / Fold change vs veh, CUX1 / RFU, TTC7A / Fold change vs veh, TTC7A / RFU, TMEM135 / Fold change vs veh, TMEM135 / RFU, DEPTOR / Fold change vs veh, DEPTOR / RFU, CPM / Fold change vs veh, CPM / RFU, DNAJB6 / Fold change vs veh, DNAJB6 / RFU, CACNA2D3 / Fold change vs veh, CACNA2D3 / RFU, DTX4 / Fold change vs veh, DTX4 / RFU, TFCP2 / Fold change vs veh, TFCP2 / RFU, GMCL1 /// GMCL1P1 / Fold change vs veh, GMCL1 /// GMCL1P1 / RFU, AEBP2 / Fold change vs veh, AEBP2 / RFU, SNHG1 /// SNORD22 /// SNORD25 /// SNORD26 /// SNORD27 /// SNORD28 /// SNORD29 /// SNORD31 / Fold change vs veh, SNHG1 /// SNORD22 /// SNORD25 /// SNORD26 /// SNORD27 /// SNORD28 /// SNORD29 /// SNORD31 / Fold change (Aza/veh), C12orf56 (ProbeSet 11735607_a_at) / Fold change (ACY-1035/veh), C12orf56 (ProbeSet 11735607_a_at) / Fold change (Aza/veh), FGFR1OP (ProbeSet 11751329_s_at) / Fold change (ACY-1035/veh), FGFR1OP (ProbeSet 11751329_s_at) / Fold change (Aza/veh), VPS36 (ProbeSet 11739960_a_at) / Fold change (ACY-1035/veh), VPS36 (ProbeSet 11739960_a_at) / RFU SYPL1 (11715823_x_at) / Fold change /veh SYPL1 (11715823_x_at) / RFU IGFBP7 (11715501_s_at) / Fold change /veh IGFBP7 (11715501_s_at) / RFU REEP3 (11722064_at) / Fold change /veh REEP3 (11722064_at) / RFU IGLL1 (11728026_x_at) / Fold change /veh IGLL1 (11728026_x_at): dose or concentration left out as unconfirmed. The note with it: ProbeSet 11755159_a_at; LIST D.

Turning to `Nc1ncn([C@@H]2O[C@H](CO)[C@@H](O)[C@H]2O)c(=O)n1` [azacitidine], the “RFU, COG3” value was found to be 74.05 RFU.
